# Source: patent publication US6770597B2, “Benzohydrazide derivatives as herbicides and desiccant compositions containing them” (Ishihara Sangyo Kaisha, Ltd., priority 2002, dated 2004)
# How the values were obtained:
# Assay type in all cases: in vivo
# [1] = system: field corn (Zea mays L., var. Dekalb 535, CORN); assay: Greenhouse herbicide screen, post-emerge application, crop damage rating; settings: POST emergent, 14 days after application, scale 0-100
# Summary of the method: (§1)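 Seeds went into sandy loam soil mix, one day before spraying for pre-emergence or 8–21 days before for post-emergence. Test substances in acetone were then sprayed at rates of 15–1000 g ai/ha. Damage was scored 0–100 fourteen days later.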
# [2] = system: upland rice (Oryza sp., var.Cocodrie, RICE); assay: as above; settings: POST emergent, 14 days after application, scale 0-100
# Summary of the method: as §1
# [3] = system: cocklebur (Xanthium strumarium, XANST); assay: Greenhouse herbicide screen, post-emerge application, phytotoxicity rating; settings: POST emergent, 14 days after application, scale 0-100
# Summary of the method: as §1
# [4] = system: large crabgrass (Digitaria sanguinalis, DIGSA); assay: as above; settings: POST emergent, 14 days after application, scale 0-100
# Summary of the method: as §1
# [5] = system: johnsongrass (Sorghum halepense, SORHA); assay: as above; settings: POST emergent, 14 days after application, scale 0-100
# Summary of the method: as §1
# [6] = system: sicklepod (Cassia obtusifolia, CASOB); assay: as above; settings: POST emergent, 14 days after application, scale 0-100
# Summary of the method: as §1
# [7] = system: velvetleaf (Abutilon theophrasti, ABUTH); assay: as above; settings: POST emergent, 14 days after application, scale 0-100
# Summary of the method: as §1
# [8] = system: common ragweed (Ambrosia artemisiifolia L., AMBEL); assay: as above; settings: POST emergent, 14 days after application, scale 0-100
# Summary of the method: as §1
# [9] = system: ivyleaf morningglory (Ipomoea hederacea, IPOHE); assay: as above; settings: POST emergent, 14 days after application, scale 0-100
# Summary of the method: as §1
# [10] = system: redroot pigweed (Amaranthus retrofiexus, AMARE); assay: as above; settings: POST emergent, 14 days after application
# Summary of the method: as §1
# [11] = system: green foxtail (Setaria viridis, SETVI); assay: as above; settings: POST emergent, 14 days after application, scale 0-100
# Summary of the method: as §1
# [12] = system: barnyardgrass (Echinochloa crus-galli, ECHCG); assay: as above; settings: POST emergent, 14 days after application, scale 0-100
# Summary of the method: as §1
# [13] = system: lambsquarters (Chenopodium album, CHEAL); assay: as above; settings: POST emergent, 14 days after application, scale 0-100
# Summary of the method: as §1
# [14] = system: field corn (Zea mays L., var. Dekalb 535, CORN); assay: Greenhouse herbicide screen, pre-emerge application, crop damage rating; settings: PRE emergent, 14 days after application, rating scale 0-100
# Summary of the method: as §1
# [15] = system: upland rice (Oryza sp., var.Cocodrie, RICE); assay: as above; settings: PRE emergent, 14 days after application, rating scale 0-100
# Summary of the method: as §1
# [16] = system: cocklebur (Xanthium strumarium, XANST); assay: Greenhouse herbicide screen, pre-emerge application, phytotoxicity rating; settings: PRE emergent, 14 days after application, rating scale 0-100
# Summary of the method: as §1
# [17] = system: large crabgrass (Digitaria sanguinalis, DIGSA); assay: as above; settings: PRE emergent, 14 days after application, rating scale 0-100
# Summary of the method: as §1
# [18] = system: johnsongrass (Sorghum halepense, SORHA); assay: as above; settings: PRE emergent, 14 days after application, rating scale 0-100
# Summary of the method: as §1
# [19] = system: sicklepod (Cassia obtusifolia, CASOB); assay: as above; settings: PRE emergent, 14 days after application, rating scale 0-100
# Summary of the method: as §1
# [20] = system: velvetleaf (Abutilon theophrasti, ABUTH); assay: as above; settings: PRE emergent, 14 days after application, rating scale 0-100
# Summary of the method: as §1
# [21] = system: common ragweed (Ambrosia artemisiifolia L., AMBEL); assay: as above; settings: PRE emergent, 14 days after application, rating scale 0-100
# Summary of the method: as §1
# [22] = system: ivyleaf morningglory (Ipomoea hederacea, IPOHE); assay: as above; settings: PRE emergent, 14 days after application, rating scale 0-100
# Summary of the method: as §1
# [23] = system: redroot pigweed (Amaranthus retrofiexus, AMARE); assay: as above; settings: PRE emergent, 14 days after application, rating scale 0-100
# Summary of the method: as §1
# [24] = system: green foxtail (Setaria viridis, SETVI); assay: as above; settings: PRE emergent, 14 days after application, rating scale 0-100
# Summary of the method: as §1
# [25] = system: barnyardgrass (Echinochloa crus-galli, ECHCG); assay: as above; settings: PRE emergent, 14 days after application, rating scale 0-100
# Summary of the method: as §1
# [26] = system: lambsquarters (Chenopodium album, CHEAL); assay: as above; settings: PRE emergent, 14 days after application, rating scale 0-100
# Summary of the method: as §1
# [27] = 63 g ai/ha, scale 0-100 (0 no damage, 100 complete death)
compound,measurement,setting,value
CC(=O)OC(=NN1C(C)CCCC1C)c1cc(-n2c(=O)cc(C(F)(F)F)n(C)c2=O)c(F)cc1Cl (centres unmarked) [Compound 4-9],crop damage rating CORN,[1]; 63 g ai/ha,0
same,crop damage rating CORN,[1]; 250 g ai/ha,50
same,crop damage rating RICE,[2]; 63 g ai/ha,0
same,crop damage rating RICE,[2]; 250 g ai/ha,0
same,phytotoxicity rating XANST,[3]; 63 g ai/ha,30
same,phytotoxicity rating XANST,[3]; 250 g ai/ha,60
same,phytotoxicity rating DIGSA,[4]; 63 g ai/ha,50
same,phytotoxicity rating DIGSA,[4]; 250 g ai/ha,99
same,phytotoxicity rating SORHA,[5]; 63 g ai/ha,0
same,phytotoxicity rating SORHA,[5]; 250 g ai/ha,80
same,phytotoxicity rating CASOB,[6]; 63 g ai/ha,60
same,phytotoxicity rating CASOB,[6]; 250 g ai/ha,90
same,phytotoxicity rating ABUTH,[7]; 63 g ai/ha,100
same,phytotoxicity rating ABUTH,[7]; 250 g ai/ha,100
same,phytotoxicity rating AMBEL,[8]; 63 g ai/ha,60
same,phytotoxicity rating AMBEL,[8]; 250 g ai/ha,99
same,phytotoxicity rating IPOHE,[9]; 63 g ai/ha,95
same,phytotoxicity rating IPOHE,[9]; 250 g ai/ha,100
same,phytotoxicity rating AMARE,[10]; [27],100
same,phytotoxicity rating AMARE,"[10]; 250 g ai/ha, scale 0-100",100
same,phytotoxicity rating SETVI,[11]; 63 g ai/ha,65
same,phytotoxicity rating SETVI,[11]; 250 g ai/ha,100
same,phytotoxicity rating ECHCO,[12]; 63 g ai/ha,0
same,phytotoxicity rating ECHCO,[12]; 250 g ai/ha,15
same,phytotoxicity rating CHEAL,[13]; 63 g ai/ha,100
same,phytotoxicity rating CHEAL,[13]; 250 g ai/ha,100
same,crop damage rating CORN,[14]; 63 g ai/ha,30
same,crop damage rating CORN,[14]; 250 g ai/ha,95
same,crop damage rating RICE,[15]; 63 g ai/ha,10
same,crop damage rating RICE,[15]; 250 g ai/ha,15
same,phytotoxicity rating XANST,[16]; 63 g ai/ha,35
same,phytotoxicity rating XANST,[16]; 250 g ai/ha,100
same,phytotoxicity rating DIGSA,[17]; 63 g ai/ha,99
same,phytotoxicity rating DIGSA,[17]; 250 g ai/ha,100
same,phytotoxicity rating SORHA,[18]; 63 g ai/ha,65
same,phytotoxicity rating SORHA,[18]; 250 g ai/ha,100
same,phytotoxicity rating CASOB,[19]; 63 g ai/ha,80
same,phytotoxicity rating CASOB,[19]; 250 g ai/ha,100
same,phytotoxicity rating ABUTH,[20]; 63 g ai/ha,100
same,phytotoxicity rating ABUTH,[20]; 250 g ai/ha,100
same,phytotoxicity rating AMBEL,[21]; 63 g ai/ha,90
same,phytotoxicity rating AMBEL,[21]; 250 g ai/ha,100
same,phytotoxicity rating IPOHE,[22]; 63 g ai/ha,100
same,phytotoxicity rating IPOHE,[22]; 250 g ai/ha,100
same,phytotoxicity rating AMARE,[23]; 63 g ai/ha,100
same,phytotoxicity rating AMARE,[23]; 250 g ai/ha,100
same,phytotoxicity rating SETVI,[24]; 63 g ai/ha,100
same,phytotoxicity rating SETVI,[24]; 250 g ai/ha,100
same,phytotoxicity rating ECHCG,[25]; 63 g ai/ha,55
same,phytotoxicity rating ECHCG,[25]; 250 g ai/ha,99
same,phytotoxicity rating CHEAL,[26]; 63 g ai/ha,100
same,phytotoxicity rating CHEAL,[26]; 250 g ai/ha,100
CC(=NN=C(OS(C)(=O)=O)c1cc(-n2c(=O)cc(C(F)(F)F)n(C)c2=O)c(F)cc1Cl)C(C)(C)C [Compound 5-3],crop damage rating CORN,[1]; 63 g ai/ha,60
same,crop damage rating RICE,[2]; 63 g ai/ha,10
same,phytotoxicity rating XANST,[3]; 63 g ai/ha,70
same,phytotoxicity rating DIGSA,[4]; 63 g ai/ha,60
same,phytotoxicity rating SORHA,[5]; 63 g ai/ha,30
same,phytotoxicity rating CASOB,[6]; 63 g ai/ha,50
same,phytotoxicity rating ABUTH,[7]; 63 g ai/ha,95
same,phytotoxicity rating AMBEL,[8]; 63 g ai/ha,90
same,phytotoxicity rating IPOHE,[9]; 63 g ai/ha,100
same,phytotoxicity rating AMARE,[10]; [27],99
same,phytotoxicity rating SETVI,[11]; 63 g ai/ha,60
same,phytotoxicity rating ECHCO,[12]; 63 g ai/ha,100
same,phytotoxicity rating CHEAL,[13]; 63 g ai/ha,80
same,crop damage rating CORN,[14]; 63 g ai/ha,50
same,crop damage rating RICE,[15]; 63 g ai/ha,30
same,phytotoxicity rating XANST,[16]; 63 g ai/ha,30
same,phytotoxicity rating DIGSA,[17]; 63 g ai/ha,60
same,phytotoxicity rating SORHA,[18]; 63 g ai/ha,90
same,phytotoxicity rating CASOB,[19]; 63 g ai/ha,70
same,phytotoxicity rating ABUTH,[20]; 63 g ai/ha,100
same,phytotoxicity rating AMBEL,[21]; 63 g ai/ha,60
same,phytotoxicity rating IPOHE,[22]; 63 g ai/ha,80
same,phytotoxicity rating AMARE,[23]; 63 g ai/ha,100
same,phytotoxicity rating SETVI,[24]; 63 g ai/ha,55
same,phytotoxicity rating ECHCG,[25]; 63 g ai/ha,30
same,phytotoxicity rating CHEAL,[26]; 63 g ai/ha,100
CC(=NN=C(OC(=O)C(Cl)Cl)c1cc(-n2c(=O)cc(C(F)(F)F)n(C)c2=O)c(F)cc1Cl)C(C)(C)C [Compound 5-4],crop damage rating CORN,[1]; 63 g ai/ha,60
same,crop damage rating RICE,[2]; 63 g ai/ha,10
same,phytotoxicity rating XANST,[3]; 63 g ai/ha,65
same,phytotoxicity rating DIGSA,[4]; 63 g ai/ha,75
same,phytotoxicity rating SORHA,[5]; 63 g ai/ha,30
same,phytotoxicity rating CASOB,[6]; 63 g ai/ha,50
same,phytotoxicity rating ABUTH,[7]; 63 g ai/ha,99
same,phytotoxicity rating AMBEL,[8]; 63 g ai/ha,95
same,phytotoxicity rating IPOHE,[9]; 63 g ai/ha,100
same,phytotoxicity rating AMARE,[10]; [27],95
same,phytotoxicity rating SETVI,[11]; 63 g ai/ha,55
same,phytotoxicity rating ECHCO,[12]; 63 g ai/ha,90
same,phytotoxicity rating CHEAL,[13]; 63 g ai/ha,70
same,crop damage rating CORN,[14]; 63 g ai/ha,10
same,crop damage rating RICE,[15]; 63 g ai/ha,55
same,phytotoxicity rating XANST,[16]; 63 g ai/ha,40
same,phytotoxicity rating DIGSA,[17]; 63 g ai/ha,55
same,phytotoxicity rating SORHA,[18]; 63 g ai/ha,85
same,phytotoxicity rating CASOB,[19]; 63 g ai/ha,30
same,phytotoxicity rating ABUTH,[20]; 63 g ai/ha,100
same,phytotoxicity rating AMBEL,[21]; 63 g ai/ha,70
same,phytotoxicity rating IPOHE,[22]; 63 g ai/ha,100
same,phytotoxicity rating AMARE,[23]; 63 g ai/ha,100
same,phytotoxicity rating SETVI,[24]; 63 g ai/ha,50
same,phytotoxicity rating ECHCG,[25]; 63 g ai/ha,40
same,phytotoxicity rating CHEAL,[26]; 63 g ai/ha,100
